Several values for one entry are separate records, joined by “and”; a condition that tells them apart may be missing. Equal values may be shown once. Toxic doses and inconclusive results are not listed.
System: P388 leukemia ip, CD2F1 mice, survival T/C
Experiment: NCI In Vivo Anticancer Drug Screen. Data for tumor model P388 Leukemia (intraperitoneal) in CD2F1 (CDF1) mice
Settings: endpoint: median survival time, higher = longer survival
Procedure, shortened: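 Mice carrying the transplanted tumor received test compound or vehicle. Survival was recorded in each group, and the value is the treated-group measurement divided by that of the vehicle-treated control group.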

[1] = dose: 50.0 mg/kg/injection, schedule: Q01DX009 (ip), vehicle: saline
[2] = dose: 12.5 mg/kg/injection, schedule: Q01DX009 (ip), vehicle: saline
[3] = dose: 25.0 mg/kg/injection, schedule: Q01DX009 (ip), vehicle: saline
[4] = dose: 50.0 mg/kg/injection, schedule: Q01DX005 (ip), vehicle: saline with Tween-80
[5] = dose: 100.0 mg/kg/injection, schedule: Q01DX005 (ip), vehicle: saline with Tween-80
[6] = dose: 200.0 mg/kg/injection, schedule: Q01DX005 (ip), vehicle: saline with Tween-80

SMILES: Cn1ccoc1=NC1CCCCC1
- T/C (dose: 50.0 mg/kg/injection, schedule: Q01DX009 (ip), vehicle: saline with Tween-80): 110 % of control
- T/C (dose: 100.0 mg/kg/injection, schedule: Q01DX009 (ip), vehicle: saline with Tween-80): 100 % of control
- T/C (dose: 200.0 mg/kg/injection, schedule: Q01DX009 (ip), vehicle: saline with Tween-80): 100 % of control

SMILES: O=C1CCCC2c3[nH]c4ccccc4c3CCN12 (centres undefined)
- T/C (dose: 100.0 mg/kg/injection, schedule: Q04DX002 (ip), vehicle: Klucel (hydroxypropylcellulose) (HPC)): 97 % of control
- T/C (dose: 200.0 mg/kg/injection, schedule: Q04DX002 (ip), vehicle: Klucel (hydroxypropylcellulose) (HPC)): 100 % of control
- T/C (dose: 400.0 mg/kg/injection, schedule: Q04DX002 (ip), vehicle: Klucel (hydroxypropylcellulose) (HPC)): 96 % of control

SMILES: NC(CC(=O)O)P(=O)(O)O (centres undefined)
- T/C [1]: 93 % of control
- T/C (dose: 100.0 mg/kg/injection, schedule: Q01DX009 (ip), vehicle: saline): 98 % of control
- T/C (dose: 200.0 mg/kg/injection, schedule: Q01DX009 (ip), vehicle: saline): 107 % of control

SMILES: c1ccc(CSC2=NCCCC2)cc1
- T/C (dose: 100.0 mg/kg/injection, schedule: Q04DX002 (ip), vehicle: saline with Tween-80): 98 % of control
- T/C (dose: 200.0 mg/kg/injection, schedule: Q04DX002 (ip), vehicle: saline with Tween-80): 105 % of control
- T/C (dose: 400.0 mg/kg/injection, schedule: Q04DX002 (ip), vehicle: saline with Tween-80): 100 % of control

SMILES: CCCOC(=O)c1ccccc1OP(=O)(N(C)C)N(C)C
- T/C (dose: 50.0 mg/kg/injection, schedule: Q01DX005 (ip), vehicle: saline): 93 % of control
- T/C (dose: 100.0 mg/kg/injection, schedule: Q01DX005 (ip), vehicle: saline): 98 % of control
- T/C (dose: 200.0 mg/kg/injection, schedule: Q01DX005 (ip), vehicle: saline): 108 % of control

SMILES: CC(=O)Nc1ccc2nc(SC(C)C)sc2c1
- T/C (dose: 6.25 mg/kg/injection, schedule: Q01DX009 (ip), vehicle: Klucel (hydroxypropylcellulose) (HPC)): 104 % of control
- T/C (dose: 12.5 mg/kg/injection, schedule: Q01DX009 (ip), vehicle: Klucel (hydroxypropylcellulose) (HPC)): 102 % of control
- T/C (dose: 25.0 mg/kg/injection, schedule: Q01DX009 (ip), vehicle: Klucel (hydroxypropylcellulose) (HPC)): 96 % of control

SMILES: COc1cc(C(C)=O)cc([N+](=O)[O-])c1O
- T/C (dose: 50.0 mg/kg/injection, schedule: Q04DX003 (ip), vehicle: saline with Tween-80): 100 % of control
- T/C (dose: 100.0 mg/kg/injection, schedule: Q04DX003 (ip), vehicle: saline with Tween-80): 100 % of control
- T/C (dose: 200.0 mg/kg/injection, schedule: Q04DX003 (ip), vehicle: saline with Tween-80): 100 % of control

SMILES: FC(F)(F)c1cccc(COCCN2CCN(Cc3cccc(C(F)(F)F)c3)CC2)c1
- T/C (dose: 60.0 mg/kg/injection, schedule: Q01DX005 (ip), vehicle: saline with Tween-80): 103 % of control
- T/C (dose: 120.0 mg/kg/injection, schedule: Q01DX005 (ip), vehicle: saline with Tween-80): 95 % of control
- T/C (dose: 240.0 mg/kg/injection, schedule: Q01DX005 (ip), vehicle: saline with Tween-80): 112 % of control

SMILES: Brc1cc2c(cc1CC1NCCc3cc4c(cc31)OCO4)OCO2 (centres undefined)
- T/C (dose: 50.0 mg/kg/injection, schedule: Q01DX001 (ip), vehicle: saline + alcohol): 97 % of control
- T/C (dose: 100.0 mg/kg/injection, schedule: Q01DX001 (ip), vehicle: saline + alcohol): 100 % of control
- T/C (dose: 200.0 mg/kg/injection, schedule: Q01DX001 (ip), vehicle: saline + alcohol): 103 % of control

SMILES: CCC(=O)/C=C/c1ccc(N(C)C)cc1
- T/C (dose: 100.0 mg/kg/injection, schedule: Q04DX003 (ip), vehicle: Klucel (hydroxypropylcellulose) (HPC)): 93 % of control
- T/C (dose: 200.0 mg/kg/injection, schedule: Q04DX003 (ip), vehicle: Klucel (hydroxypropylcellulose) (HPC)): 89 % of control

SMILES: c1ccc2c(c1)C[n+]1ccc3ccccc3c1-c1c3ccccc3cc[n+]1C2
- T/C (dose: 12.5 mg/kg/injection, schedule: Q01DX001 (ip), vehicle: saline): 100 % of control
- T/C (dose: 25.0 mg/kg/injection, schedule: Q01DX001 (ip), vehicle: saline): 107 % of control

SMILES: C1CC[N-]CC1.C1CC[N-]CC1.C1CC[N-]CC1.[Cl][Rh]([Cl])[Cl]
- T/C (dose: 1.0 mg/kg/injection, schedule: Q03HX024 (ip), vehicle: saline): 100 % of control and 96 % of control
- T/C (dose: 2.0 mg/kg/injection, schedule: Q03HX016 (ip), vehicle: saline): 97 % of control
- T/C (dose: 2.0 mg/kg/injection, schedule: Q03HX024 (ip), vehicle: saline): 96 % of control and 98 % of control
- T/C (dose: 4.0 mg/kg/injection, schedule: Q01DX009 (ip), vehicle: saline): 98 % of control
- T/C (dose: 4.0 mg/kg/injection, schedule: Q03HX016 (ip), vehicle: saline): 96 % of control
- T/C (dose: 4.0 mg/kg/injection, schedule: Q03HX024 (ip), vehicle: saline): 96 % of control
- T/C (dose: 8.0 mg/kg/injection, schedule: Q03HX016 (ip), vehicle: saline): 110 % of control and 96 % of control
- T/C (dose: 8.0 mg/kg/injection, schedule: Q03HX024 (ip), vehicle: saline): 97 % of control
- T/C (dose: 8.0 mg/kg/injection, schedule: Q04DX003 (ip), vehicle: saline): 100 % of control
- T/C (dose: 16.0 mg/kg/injection, schedule: Q01DX001 (ip), vehicle: saline): 110 % of control
- T/C (dose: 16.0 mg/kg/injection, schedule: Q03HX008 (ip), vehicle: saline): 119 % of control
- T/C (dose: 16.0 mg/kg/injection, schedule: Q03HX024 (ip), vehicle: saline): 97 % of control
- T/C (dose: 25.0 mg/kg/injection, schedule: Q01DX009 (ip), vehicle: saline with Tween-80): 154 % of control
- T/C (dose: 32.0 mg/kg/injection, schedule: Q01DX009 (ip), vehicle: saline): 118 % of control
- T/C (dose: 32.0 mg/kg/injection, schedule: Q03HX008 (ip), vehicle: saline): 110 % of control
- T/C (dose: 32.0 mg/kg/injection, schedule: Q03HX016 (ip), vehicle: saline): 96 % of control
- T/C (dose: 32.0 mg/kg/injection, schedule: Q03HX024 (ip), vehicle: saline): 96 % of control and 97 % of control
- T/C (dose: 64.0 mg/kg/injection, schedule: Q01DX001 (ip), vehicle: saline): 110 % of control
- T/C (dose: 64.0 mg/kg/injection, schedule: Q01DX009 (ip), vehicle: saline): 118 % of control
- T/C (dose: 64.0 mg/kg/injection, schedule: Q08DX002 (ip), vehicle: saline): 110 % of control

SMILES: C=C1C(=O)C23C(O)CC4C5(C)CCCC4(C(O)OC5)C2C(OC(C)=O)CC1C3O (centres undefined)
- T/C (dose: 4.0 mg/kg/injection, schedule: Q01DX009 (ip), vehicle: other): 115 % of control
- T/C (dose: 4.0 mg/kg/injection, schedule: Q01DX009 (ip), vehicle: water): 114 % of control
- T/C (dose: 8.0 mg/kg/injection, schedule: Q01DX009 (ip), vehicle: water): 116 % of control
- T/C (dose: 16.0 mg/kg/injection, schedule: Q01DX009 (ip), vehicle: other): 122 % of control
- T/C (dose: 16.0 mg/kg/injection, schedule: Q01DX009 (ip), vehicle: water): 114 % of control
- T/C (dose: 32.0 mg/kg/injection, schedule: Q01DX009 (ip), vehicle: water): 107 % of control

SMILES: CCOC(=O)c1conc1C
- T/C [2]: 112 % of control
- T/C [3]: 106 % of control
- T/C [1]: 101 % of control and 103 % of control

SMILES: CC(C)(Nc1ccccc1)C(=O)OC(C)(C)C(=O)Nc1ccccc1
- T/C [4]: 90 % of control
- T/C [5]: 91 % of control
- T/C [6]: 91 % of control

SMILES: CC1CN(Cc2ccccc2)CC(C)N1Cc1ccccc1 (centres undefined)
- T/C [4]: 103 % of control
- T/C [5]: 105 % of control
- T/C [6]: 103 % of control

SMILES: S=C(Nc1ccccc1)SCc1ccc2c(c1)OCO2
- T/C (dose: 100.0 mg/kg/injection, schedule: Q01DX001 (ip), vehicle: saline): 98 % of control
- T/C (dose: 200.0 mg/kg/injection, schedule: Q01DX001 (ip), vehicle: saline): 101 % of control
- T/C (dose: 400.0 mg/kg/injection, schedule: Q01DX001 (ip), vehicle: saline): 101 % of control

SMILES: O=C(O)C(O)CBr (centres undefined)
- T/C [2]: 100 % of control
- T/C [3]: 95 % of control
- T/C (dose: 25.0 mg/kg/injection, schedule: Q04DX003 (ip), vehicle: saline): 91 % of control
- T/C [1]: 95 % of control
- T/C (dose: 50.0 mg/kg/injection, schedule: Q04DX003 (ip), vehicle: saline): 87 % of control

Source: PubChem BioAssay AID330 (DTP/NCI, 2004)
